Results reported in patent US12285393B2, “Roles of modulators of intersectin-Cdc42 signaling in Alzheimer's disease” (priority 2017, dated 2025).

What was measured:
[1] = biological target: Cdc42 (Homo sapiens, UniProt P60953); experiment: Cdc42-GEF-assay, additional compound screening; type: biochemical; design: purchased Cytoskeleton Inc; conditions: percentages of ZCL278 activity normalized to batch; more than 100% = more potent activator; Table 9
Protocol: (§1) Rho-GEF IC50 Assay: Rho-GEF assay (Cytoskeleton Inc., Denver, Colorado, United States of America) was conducted per manufacturer's instructions (λex=360 nm, λem=460 nm). Briefly, a solution (50 μL) of purified Rho GTPase (1 μM) and mant-GTP (1.5 μM) with or without compound (0.001-500 μM) was prepared and the absorbance monitored for 10-30 min to obtain the background/baseline. The addition of purified GEF/DH domain (0.08-0.2 μM) was carried out simultaneously and the absorbance was recorded for 30-45 min. The linear slope following the addition of the GEF was calculated and expressed as percentage of the control and plotted on an IC50 curve.
Cdc42 (1 μM) was incubated with mant-GTP (1.5 μM) and varying concentrations of ZCL278, ZCL279, or ZCL367 (5-500 μM). Fluorescent readings were taken every minute for 10 m to acquire the baseline. The GEF/DH domain (0.08-0.2 μM) was added followed by readings taken every minute for another 30 m. The linear phase was calculated from within the time period of 12-22 m. Cdc42 (1 μM) was incubated with mant-GTP (1.5 μM) and varying concentrations of ZCL278, ZCL279, or ZCL367 (5-500 μM). Fluorescent readings were taken every minute for 30 m to monitor the binding of mant-GTP in the absence of GEF/DH domain.
Cdc42-GEF-assays were conducted on additional screening compounds in batches of 9 compounds per batch as described above in Example 2 using ZCL278 and ZCL367 as standards. Screening compounds were taken from the Specs Chemistry Database of 197,000 compounds for small molecule or the National Cancer Institute Compound Library. […] These compounds promote Cdc42-mantGTP binding without GEF. It is possible that these compounds can inhibit Cdc42-mantGTP binding with GEF. […] These compounds appear to have activity like ZCL279. […] However, upon the addition of GEF, the compounds appear to facilitate the binding of mantGTP to Cdc42 (high assay slope, relative to ZCL278)

[2] = biological target: T1, RhoA (Homo sapiens, UniProt P61586); experiment: Rho-GEF IC50 assay (GEF/DH domain-mediated mant-GTP binding); type: biochemical
T1 construct: purchased Cytoskeleton Inc
T1 sequence (P61586 whole entry, the tested form may be a part): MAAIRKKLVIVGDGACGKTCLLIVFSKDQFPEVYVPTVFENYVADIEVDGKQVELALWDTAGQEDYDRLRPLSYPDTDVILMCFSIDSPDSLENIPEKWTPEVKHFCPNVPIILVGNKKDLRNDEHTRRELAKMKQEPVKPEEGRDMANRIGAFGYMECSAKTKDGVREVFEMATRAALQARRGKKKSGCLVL
Protocol: as §1

[3] = test system: 3×Tg-AD mice; experiment: Nesting test; type: in vivo; conditions: 3×Tg AD mouse model; 20 μg/g I.P. once a week, 4 weeks
Source text: Six-month-old C57/BL6 (WT) and 3×Tg-AD mice with an average weight of 24 g from Jackson Laboratory (Bar Harbor, Maine, United States of America) were used. The 3×Tg-AD mice in hybrid 129/C57BL/6 background contain two mutant human transgenes, hAPP harboring Swedish mutation (hAPPswe) and mutant htau (htau301L) under a neuron-specific promoter, and also contain the knock-in mutant presenilin 1 (PS1M146V). See Oddo et al. (2003) Neuron 39:409-421). 3×Tg-AD mice were received from Jackson Laboratory as Psen1 B6:129-Psen1<tmMpm>Tg(APPSwetauP301L)1Lfa/J and the wild type control as SF2: (B6129SF1/J+p+Tyr-c+Mgf-SIJ)F2. All mice were subjected to two weeks of training for familiarizing behavioral test procedures. […]
Nesting test: Similar to the burrowing test, 2.5 hours before the start of the dark cycle, mice were housed singly in cages containing one 5 cm square of pressed cotton (‘Nestlet’, which the mice normally received as part of their environmental enrichment) with which to make a nest. The condition of each nest was assessed after 2 hours, according to a four-point scale as follows: • 1=Nestlet not noticeably touched (>90% intact). • 2=Nestlet partially tom up (70-90% remaining intact). • 3=Mostly shredded but often no identifiable nest site (<50% remaining intact). • 4=An identifiable nest (<10% remaining intact).

Sequence of Cdc42 (P60953 whole entry, the tested form may be a part): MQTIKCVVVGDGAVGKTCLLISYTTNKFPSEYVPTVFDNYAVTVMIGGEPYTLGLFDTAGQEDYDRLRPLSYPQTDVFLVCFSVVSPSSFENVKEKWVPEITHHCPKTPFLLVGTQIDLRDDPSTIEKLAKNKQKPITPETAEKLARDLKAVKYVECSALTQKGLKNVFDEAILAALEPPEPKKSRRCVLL

SMILES	% ZCL278 (activator activity) [1] [%]	IC50 [2] [µM]	instinctual behavior: nesting behavior [3]
Cc1cc(C)nc(NS(=O)(=O)c2ccc(NC(=S)NC(=O)COc3ccc(Br)cc3Cl)cc2)n1 [ZCL278, 4-(3-(2-(4-bromo-2-chloro-phenoxy)-acetyl)-thioureido)-N-(4,6-dimethylpyrimidin-2-yl)-benzenesulfonamide]	100	≥ 500	–
O=S(=O)(Nc1ccccc1O)c1ccc2oc3ccc(S(=O)(=O)Nc4ccccc4O)cc3c2c1 [ZCL279, N^2,N^8-bis(2-hydroxyphenyl)dibenzo[b,d]furan-2,8-disulfonamide]	–	–	improve instinctual behavior
